Measured values taken from patent US7378404B2, “8β-hydrocarbyl-substituted estratrienes for use as selective estrogens” (priority 2000, dated 2008).

Key:
[1] = test system: estrogen receptor of rat prostates; experiment: Competitive binding with 3H-estradiol to estrogen receptor preparation of rat prostate cytosol; conditions: for Rat prost. ER (RBA): Table 1, estradiol = 100; for RBA Rat Prostate: Table 2; for binding affinity to estrogen receptor of rat prostates compared with estrogen receptor of rat uteri: rat prostate ER versus rat uterus ER
[2] = biological target: T1, estrogen receptor of rat uteri (Rattus norvegicus, UniProt P06211); experiment: Competitive binding with 3H-estradiol to estrogen receptor preparation of rat uterus cytosol; conditions: for RBA Rat Uterus: Table 2
T1 construct: The preparation of rat uterus cytosol as well as the receptor test with the ER-containing cytosol; from tissue; host or cells: rat uterus cytosol
T1 sequence (P06211 1-600): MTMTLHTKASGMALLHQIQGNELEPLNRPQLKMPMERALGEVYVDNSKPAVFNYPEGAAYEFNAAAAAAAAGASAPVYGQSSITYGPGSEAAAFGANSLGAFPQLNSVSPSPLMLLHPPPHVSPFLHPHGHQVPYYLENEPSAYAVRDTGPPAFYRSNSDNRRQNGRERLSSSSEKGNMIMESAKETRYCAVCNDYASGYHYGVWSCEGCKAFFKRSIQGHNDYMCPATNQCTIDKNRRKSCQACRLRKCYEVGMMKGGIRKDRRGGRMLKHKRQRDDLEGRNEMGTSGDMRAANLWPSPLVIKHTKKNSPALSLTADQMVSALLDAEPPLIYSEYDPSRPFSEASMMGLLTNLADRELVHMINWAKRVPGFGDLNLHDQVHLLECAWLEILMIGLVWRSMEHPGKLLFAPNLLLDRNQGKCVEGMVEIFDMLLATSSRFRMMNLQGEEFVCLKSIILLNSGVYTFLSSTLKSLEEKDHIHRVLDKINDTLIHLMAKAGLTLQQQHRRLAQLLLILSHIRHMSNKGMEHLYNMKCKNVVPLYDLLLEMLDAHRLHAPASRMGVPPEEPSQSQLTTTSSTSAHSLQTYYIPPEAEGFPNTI

[3] = test system: hERβ; conditions: estradiol = 100; cited from earlier work
[4] = test system: hERβ; experiment: Relative binding affinity (RBA) to hERβ, cited from Kuiper et al.; parameters: species or system human; conditions: quotient of RBA hERβ / hERα
Description: In this case, it is assumed that ERβ predominates in the rat prostates over ERα, and ERα predominates in rat uteri over ERβ.

[5] = test system: 5HT2a-receptor and serotonin transporter; experiment: Expression of 5HT2a-receptor and serotonin transporter in ERβ-rich brain areas after one-time administration in rats; assay type: in vivo; conditions: rat brain
Description: Compared to the effect on the serotonin receptor and transporter expression, the effect on the LH-secretion is measured. […] The density of serotonin receptors and transporters is determined in brain sections using radioactive ligands, and the corresponding mRNA is determined using in situ hybridization. The method is described in the literature: G. Fink & B. E. H. Sumner 1996 Nature 383: 306; B. E. H. Sumner et al. 1999 Molecular Brain Research, in press.

SMILES	Rat prost. ER (RBA) [1]	RBA Rat Prostate [1]	binding affinity to estrogen receptor of rat prostates compared with estrogen receptor of rat uteri [1]	expression of the serotonin receptor and transporter [5]	RBA Rat Uterus [2]	also measured
COc1ccc2c(c1)CC[C@]1(C)C2=CC[C@@]2(C)[C@H]1CC[C@@H]2O						melting point: 168 °C
C[C@]12CC[C@H]3[C@@H](CC=C4C[C@@H](O)CC[C@@]43C)[C@@H]1CC[C@@H]2O [5-Androstenediol, reference compound]	5					prost. ER/uterus ER ([1]; ratio of RBA rat prostate ER / rat uterus ER): 50; Rat uterus ER (RBA) ([2]; Table 1, estradiol = 100): 0.1; hERβ RBA [3]: 17; ERβ/ERα [4]: 3
C[C@]12CC[C@@H]3c4ccc(O)cc4CC[C@H]3[C@@H]1CC[C@H]2O [17α-Estradiol, reference compound]	1.3					
C=C[C@@]12CCc3cc(O)ccc3C1=CC[C@@]1(C)[C@H]2CC[C@@H]1O [A, 8β-Vinyl-estra-1,3,5(10),9(11)-tetraene-3,17β-diol]		83	higher binding affinity	increased expression	1	
C=C[C@@]12CCc3cc(O)ccc3[C@H]1CC[C@@]1(C)[C@H]2CC[C@@H]1O [B, 8β-vinyl-estra-1,3,5(10)-triene-3,17β-diol]		63	higher binding affinity	increased expression	0.7	
C[C@]12CC[C@@H]3c4ccc(O)cc4CC[C@@]3(C=C(F)F)[C@@H]1CC[C@@H]2O [C, 8β-(2,2-difluorovinyl)-estra-1,3,5(10)-triene-3,17β-diol]		5	higher binding affinity	increased expression	0.9	
C[C@@]12CCc3cc(O)ccc3[C@H]1CC[C@@]1(C)[C@H]2CC[C@@H]1O [D, 8β-methyl-estra-1,3,5(10)-triene-3,17β-diol]		67	higher binding affinity	increased expression	1.3	
CC[C@@]12CCc3cc(O)ccc3[C@H]1CC[C@@]1(C)[C@H]2CC[C@@H]1O [E, 8β-ethyl-estra-1,3,5(10)-triene-3,17β-diol]		7	higher binding affinity	increased expression	<0.3	
C[C@]12CC[C@@H]3c4ccc(O)cc4CC[C@H]3[C@@H]1C[C@@H](O)[C@@H]2O [Estriol]						hERβ RBA [3]: 21
O=c1c(-c2ccc(O)cc2)coc2cc(O)cc(O)c12 [Genisteine, reference compound]	10					
